Patent publication US6043248A, “Alpha-substituted pyrimidine-thioalkyl and alkylether compounds as inhibitors of viral reverse transcriptase” (priority 1997, dated 2000)
Several values for one entry are separate records, joined by “and”; a condition that tells them apart may be missing. Equal values may be shown once. Read-outs that look alike come from different tables or passages of the source.

Legend:
[1] = target: T1, P236L viral reverse transcriptase (Human immunodeficiency virus type 1 group M subtype B, UniProt P04585, P823L); assay: inhibition of viral reverse transcriptase (P236L), cell free assay; assay type: biochemical; conditions: IC50 (Table I, P236L), 30 minutes at 37° C.
T1 construct: P236L viral reverse transcriptase is obtained by PNAS 90: 4713-4717 (1993); made in house
Procedure, shortened: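 E. coli-expressed wild-type or P236L RT extracts incubated with inhibitor 30 min at 37 °C in Tris pH 8.3 with MgCl₂, NaCl, DTT, NP-40, 10 μM [35S]-dNTP, poly rC/rG template and oligo dG/dT primer. Incorporated label counted on DE81 paper; reported as % inhibition and/or IC50.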

[2] = target: T2, viral reverse transcriptase (Wild Type) (Human immunodeficiency virus type 1 group M subtype B, UniProt P04585); assay: inhibition of viral reverse transcriptase (Wild Type), cell free assay; assay type: biochemical
T2 construct: Viral reverse transcriptase (Wild Type) is found in extracts from bacterial clones; made in house; host or cells: Escherichia coli
Text: The utility of the pyrimidine-thioalkyl and alkylether anti-AIDS compounds of Formula IA of this invention can be determined by their ability to inhibit viral reverse transcriptase, an enzyme essential for human immunodeficiency virus replication. This enzyme has characteristics which differentiate it from other known cellular polymerases and it is a unique enzyme which is not found in uninfected cells. Viral reverse transcriptase (Wild Type) is found in extracts from bacterial clones prepared according to the procedure described in AIDS Virus Reverse Transcriptase defined by high level expression in Escherichia coli, EMBO J. 6:3133-3137 (1987). P236L viral reverse transcriptase is obtained by PNAS 90: 4713-4717 (1993). Inhibition of this enzyme is determined in a cell free assay which measures the level of radioactive precursors incorporated into DNA. Extracts prepared according to the procedure of Science, 1125-1129 (1981) are incubated in a mixture of inhibitor, 20 mM dithiothreitol, 60 mM sodium chloride, 0.05% NP-40, 10 mM magnesium chloride, 50 mM Tris pH 8.3, 10 μM [^35 S]-labeled deoxynuleoside-5'-triphosphate, 10 μg/ml RNA template (poly rC or poly rG) and 5 μg/ml DNA primer (oligo dG or oligo dT) for 30 minutes at 37° C. Incorporation of radio-labeled percursor is determined by spotting aliquots of the reaction mixture on DE81 paper, washing the papers to remove unincorporated percursor, drying and determining counts. The results (IC50 means the concentration, in μM of drug, required to inhibit the reverse transcriptase activity (P236L and Wild Type) to the extent of 50%) of various assay(s) are combined and reported as % inhibition and/or IC50 (calculated) in Table I (P236L) and Table II (Wild Type).

[3] = 30 minutes at 37° C., read-out: IC50 (Table II, Wild Type)

Structure (SMILES) | IC50 [1] | IC50 [2, 3] | other results
Cc1cc2cc(C(C)Sc3nc(N)cc(Cl)n3)ncc2o1 (stereo not drawn) [Example 242, 4-Amino-6-chloro-2-(1-(2-methylfuro[2,3c]pyridine-5-yl)ethyl)thio-pyrimidine] | 0.118 µM | 0.282 µM | –
Cc1cc2cc(C(C)Sc3nc(N)cc(C(F)(F)F)n3)ncc2o1 (stereo not drawn) [Example 243, 4-Amino-6-trifluoromethyl-2-(1-(2-methylfuro[2,3c]pyridine-5-yl)ethyl)thio-pyrimidine] | 0.188 µM | 0.495 µM | –
C=Cc1cc(C(C)Sc2nc(N)cc(Cl)n2)nc(Cl)c1OC (stereo not drawn) [Example 244, 4-Amino-6-chloro-2-(1-(6-chloro-5-methoxy-4-vinyl-2-pyridyl)ethyl)thio-pyrimidine] | 0.186 µM | 0.141 µM | –
CCc1cc(C(C)Sc2nc(N)cc(Cl)n2)ncc1OC (stereo not drawn) [Example 245, 4-Amino-6-chloro-2-(1-(4-ethyl-5-methoxy-2-pyridyl)ethyl)thio-pyrimidine] | 0.191 µM | 0.343 µM | –
Cc1coc2cnc(C(C)Sc3nc(N)cc(Cl)n3)cc12 (stereo not drawn) [Example 246, 4-Amino-6-chloro-2-(1-(3-methylfuro[2,3c]pyridine-5-yl)ethyl)thio-pyrimidine] | 0.031 µM | 0.024 µM | –
CC(Sc1nc(N)cc(Cl)n1)c1cc2c(cn1)OCC2 (stereo not drawn) [Example 247, 4-Amino-6-chloro-2-(1-(2,3-dihydrofuro[2,3c]pyridine-5-yl)ethyl)thio-pyrimidine] | 0.061 µM | 0.072 µM | –
CC(Sc1nc(N)cc(Cl)n1)c1cc2c(cn1)OCC2(C)C (stereo not drawn) [Example 248, 4-Amino-6-chloro-2-(1-(3,3-dimethyl-2,3-dihydrofuro[2,3c]pyridine-5-yl)ethyl)thio-pyrimidine] | 0.018 µM | 0.072 µM | –
CCc1coc2cnc(C(C)Sc3nc(N)cc(Cl)n3)cc12 (stereo not drawn) [Example 249, 4-Amino-6-chloro-2-(1-(3-ethylfuro[2,3c]pyridine-5-yl)ethyl)thio-pyrimidine] | 0.01 µM | 0.023 µM | –
CC(Sc1nc(N)cc(Cl)n1)c1cc(C2CCCC2)ccn1 (stereo not drawn) [Example 253] | 0.2 µM | 0.203 µM | –
CC(Sc1nc(N)cc(Cl)n1)c1cc(C2CC2)ccn1 (stereo not drawn) [Example 255] | 0.1 µM | – | inhibition at 1 µM [2]: 96%
CCC(C)c1ccnc(C(C)Sc2nc(N)cc(Cl)n2)c1 (stereo not drawn) [Example 256, 4-amino-6-chloro-2-(1-(4-(1-methylpropyl)-2-pyridyl)-ethyl)thio-pyrimidine] | 0.1 µM | 0.093 µM | –
CC(Sc1nc(N)cc(Cl)n1)c1cc(C2CCCCC2)ccn1 (stereo not drawn) [Example 257] | 0.5 µM | – | inhibition at 10 µM [2]: 78%
CC(Sc1nc(N)cc(Cl)n1)c1cc(N(C)C)ccn1 (stereo not drawn) [Example 259] | 0.03 µM | 0.087 µM | –
CC(C)c1cncc(C(C)Sc2nc(N)cc(Cl)n2)c1 (stereo not drawn) [Example 260, 4-amino-6-chloro-2-(1-(5-(1-methylethyl)-3-pyridyl)-ethyl)thio-pyrimidine] | 0.03 µM | 0.07 µM | –
CCC(CC)c1ccnc(C(C)Sc2nc(N)cc(Cl)n2)c1 (stereo not drawn) [Example 261, 4-amino-6-chloro-2-(1-(4-(1-ethylpropyl)-2-pyridyl)-ethyl)thio-pyrimidine] | 0.07 µM | 0.059 µM | –
CC(C)Oc1ccnc(C(C)Sc2nc(N)cc(Cl)n2)c1 (stereo not drawn) [Example 263] | 0.1 µM | – | inhibition at 1 µM [2]: 86%
CC(Sc1nc(N)cc(C(F)(F)F)n1)c1cc(C(C)(C)C)ccn1 (stereo not drawn) [Example 269, 4-amino-6-trifluoromethyl-2-(1-(4-(1-dimethylethyl)-2-pyridyl)-ethyl)thio-pyrimidine] | 0.2 µM | 0.441 µM | –
Nc1cc(C(F)(F)F)nc(SCc2ccc3ccccc3c2)n1 [Example 270, 4-amino-6-trifluoromethyl-2-(2-naphthylmethyl)thio-pyrimidine] | 0.29 µM | 0.434 µM | –

Structure (SMILES) | IC50 [1] | IC50 [2, 3] | other results
CC(C)c1ccnc(CSc2nc(N)cc(C(F)(F)F)n2)c1 [Example 271, 4-amino-6-trifluoromethyl-2-((4-(1-methylethyl)2-pyridyl)methyl)thio-pyrimidine] | 0.05 µM | 0.031 µM | –
CC(C)c1ccnc(C(C)Sc2nc(N)cc(C(F)(F)F)n2)c1 (stereo not drawn) [Example 272, 4-amino-6-trifluoromethyl-2-(1-(4-(1-methylethyl)2-pyridyl)ethyl)thio-pyrimidine] | 0.16 µM | 0.112 µM | –
CC(C)(C)c1ccnc(CSc2nc(N)cc(C(F)(F)F)n2)c1 [Example 273, 4-amino-6-trifluoromethyl-2-((4-(1,1-dimethylethyl)2-pyridyl)methyl)-thio-pyrimidine] | 0.1 µM | – | inhibition at 1 µM [2]: 75%
N#Cc1cc(Cl)nc(SCc2ccc3ccccc3c2)n1 [Example 276, 6-chloro-2-(2-naphthylmethyl)thio-4-pyrimidine carbonitrile] | 50 µM | – | IC50 (Table II, Wild Type) ([2]; 30 minutes at 37° C.): INACTIVE
N#Cc1cc(N)nc(SCc2ccc3ccccc3c2)n1 [Example 277, 6-amino-2-(2-naphthylmethyl)thio-4-pyrimidine carbonitrile] | 0.5 µM | – | inhibition at 10 µM [2]: 84%
Clc1nc(SCc2ccc3ccccc3c2)nc2c1CCN2 [Example 281, 4-chloro-2-(naphthylmethyl)thio-5,6-dihydro-7H-pyrrolo[2,3-d]pyrimidine] | 1 µM | – | inhibition at 50 µM ([2]; @ 50 μM): 56%
Cc1coc2cnc([C@@H](C)Sc3nc(N)cc(Cl)n3)cc12 [Example 289, (R)-(+)-4-Amino-6-chloro-2-(1-(3-methylfuro[2,3c]pyridine-5-yl)ethyl)thio-pyrimidine] | 0.014 µM | 0.029 µM | –
Cc1coc2cnc([C@H](C)Sc3nc(N)cc(Cl)n3)cc12 [Example 290, (S)-(-)-4-Amino-6-chloro-2-(1-(3-methylfuro[2,3c]pyridine-5-yl)ethyl)thio-pyrimidine] | 0.014 µM | 0.025 µM | –
CCc1ccnc([C@@H](C)Sc2nc(N)cc(Cl)n2)c1 [Example 291, R-(+)-4-Amino-6-chloro-2-(1-(4-ethyl-2-pyridyl)ethyl)thio-pyrimidine] | 0.08 µM | 0.187 µM | –
CCc1ccnc([C@H](C)Sc2nc(N)cc(Cl)n2)c1 [Example 292, (-)-4-Amino-6-chloro-2-(1-(4-ethyl-2-pyridyl)ethyl)thio-pyrimidine] | 0.017 µM | – | IC50 ([2]; IC50 (Table II, Wild Type), 30 minutes at 37° C.): 0.007 µM
CC(Sc1nc(N)cc(Cl)n1)c1cc2c(C(F)(F)F)coc2c(Cl)n1 (stereo not drawn) [Example 293] | 0.19 µM | 0.345 µM | –
CC(Sc1nc(N)cc(Cl)n1)c1cc2c(C(F)(F)F)coc2cn1 (stereo not drawn) [Example 294] | 0.104 µM | 0.233 µM | –
Cc1coc2c(Cl)nc(C(C)Sc3nc(N)cc(C(F)(F)F)n3)cc12 (stereo not drawn) [Example 295, 4-Amino-2-(1-(7-chloro-3-methyl-furo[2,3c]pyridin-5-yl)ethylthio)-6-trifluoromethyl-pyrimidine] | 0.249 µM | 0.212 µM | –
Cc1coc2cnc(C(C)Sc3nc(N)cc(C(F)(F)F)n3)cc12 (stereo not drawn) [Example 296, 4-Amino-6-trifluoromethyl-2-(1-(3-methyl-furo[2,3c]pyridin-5-yl)ethylthio)-pyrimidine] | 0.079 µM and 0.083 µM and 0.075 µM | 0.054 µM and 0.111 µM | –
Cc1coc2cnc([C@H](C)Sc3nc(N)cc(C(F)(F)F)n3)cc12 [Example 297, (S)-(-)-4-Amino-6-trifluoromethyl-2-(l1-(3-methylfuro[2,3c]pyridin-5-yl)ethylthio)-pyrimidine] | 0.064 µM | 0.078 µM | –
Cc1coc2cnc([C@@H](C)Sc3nc(N)cc(C(F)(F)F)n3)cc12 [Example 298, (R)-(+)-4-Amino-6-trifluoromethyl-2-(1-(3-methylfuro[2,3c]pyridin-5-yl)ethylthio)-pyrimidine] | 0.079 µM | 0.113 µM | –
C[C@H](Sc1nc(N)cc(Cl)n1)c1cc2ccoc2cn1 [Example 299, (S)-(-)-4-Amino-6-chloro-2-(1-(furo[2,3c]pyridin-5-yl)ethylthio)-pyrimidine] | 0.022 µM | 0.02 µM | –
CC(Sc1nc(N)cc(Cl)n1)c1ccc(OCc2ccccc2)c(Cl)n1 (stereo not drawn) [Example 303, 4-amino-6-chloro-2-(((5-benzyloxy-6-chloro)-2-pyridyl)-ethyl)thio-pyrimidine] | 5 µM | 50 µM | –
